Literature values, collected in patent US20040191218A1, “Pharmaceutical compositions and methods for treating cancer” (priority 2001, published 2004).

Legend:
[1] = carboplatin compared with cisplatin
[2] = system: neoplastic cells including ovarian cancer cells
ovarian cancer = conditions: intraperitoneal IFN-γ, 108 patients with residual disease at second-look laparotomy
relapsing ovarian cancer = conditions: 14 patients with relapsing ovarian cancer, IFN-γ 2 mg/m^2 daily intravenously

Compound | neurotoxicity and nephrotoxicity [1] | antiproliferative effects on neoplastic cells [2] | overall response rate (ovarian cancer) [%] | Positive responses (relapsing ovarian cancer) [%]
[NH2][Pt]1([NH2])[O]C(=O)C2(CCC2)C(=O)[O]1 [carboplatin, diammine(1,1-cyclobutanedicarboxylato) platinum(II)] | less neurotoxicity and nephrotoxicity than cisplatin | – | – | –
IFN-γ: lymphokine produced by T-lymphocytes; natural or recombinant interferon gamma | – | exerts antiproliferative effects | 31 | 29
